# Laboratory results published in patent US6476012B2, “Estradiol-16α-carboxylic acid esters as locally active estrogens” (Yale University, priority 2001, dated 2002).
# Structures can show the parent of a compound that is named as a salt.
# Legend:
# [1] = biological target: T1, ER in rat uterine cytosol (ERα) (Rattus norvegicus, UniProt P06211); experiment: Competitive binding to the ER in rat uterine cytosol (RBA vs [3H]E2); conditions: for ER RBA (relative binding affinity): rat uterine estrogen receptor assay, E2 = 100, ± S.D.; for RBA: uterine cytosol (ERα), relative to E2
# T1 construct: The uterus was removed and homogenized in ice-cold TEGDMo buffer; from tissue; host or cells: uterine cytosol of castrated female Sprague Dawley rats
# T1 sequence (P06211 1-600): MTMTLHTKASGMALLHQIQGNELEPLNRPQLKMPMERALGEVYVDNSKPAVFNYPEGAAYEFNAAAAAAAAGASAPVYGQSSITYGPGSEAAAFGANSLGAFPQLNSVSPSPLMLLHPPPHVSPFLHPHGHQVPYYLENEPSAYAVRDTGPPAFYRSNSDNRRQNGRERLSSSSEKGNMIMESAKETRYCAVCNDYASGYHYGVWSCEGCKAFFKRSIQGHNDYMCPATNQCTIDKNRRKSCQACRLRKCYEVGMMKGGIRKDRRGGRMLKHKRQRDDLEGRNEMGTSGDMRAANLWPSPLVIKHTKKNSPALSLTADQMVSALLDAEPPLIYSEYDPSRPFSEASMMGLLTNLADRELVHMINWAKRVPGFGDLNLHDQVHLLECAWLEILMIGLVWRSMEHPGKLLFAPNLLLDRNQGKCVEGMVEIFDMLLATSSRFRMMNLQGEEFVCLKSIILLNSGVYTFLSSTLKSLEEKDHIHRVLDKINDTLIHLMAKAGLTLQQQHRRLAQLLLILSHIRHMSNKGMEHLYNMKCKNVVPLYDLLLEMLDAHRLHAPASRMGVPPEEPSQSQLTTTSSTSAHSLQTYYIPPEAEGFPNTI
# Protocol: Competitive Binding to the Estrogen Receptor ERα and ERβ. […] The ER in uterine cytosol is ERα the classical form of the ER.^38 Female Sprague Dawley rats were castrated and sacrificed 24 h later. The uterus was removed and homogenized in ice-cold TEGDMo buffer (10 mM Tris, 1.5 mM Na2-EDTA, 10% (v/v) glycerol, 1.0 mM dithiothreitol, 25 mM sodium molybdate, pH 7.4 at 4° C.). and centrifuged at 105,000 g for 45 min at 4° C. The supernatant (cytosol) was frozen on dry ice and stored at −80° C. until assay. […] Incubations were carried out on ice overnight and bound radioactivity was separated from free by adsorption with dextran coated charcoal and quantified by counting.^26 Relative Binding Affinity (RBA) was determined by analysis of the displacement curves by the curve-fitting program Prism (Graph-Pad Software inc., San Diego, Calif.). The results shown in Table 1. below, are from at least 3 separate experiments performed in duplicate.
# [2] = test system: esterase(s) in rat hepatic microsomes; experiment: Esterase assay with rat hepatic microsomes; assay type: in vitro ADME; conditions: for Esterase RHA (relative hydrolytic activity): E16-1,2 = 100
# Protocol: Esterase. Esterase activity was measured in rat hepatic microsomes essentially using the conditions described.^39 Liver obtained from Sprague-Dawley rats was washed with phosphate buffered saline and homogenized in 3 volumes of cold 0.25 M sucrose and centrifuged at 700 g for 10 min and then at 10,000 g for 20 min. The resulting supernatant was centrifuged at 105,000 g for 60 min. The pellet was suspended in 0.1 M phosphate buffer pH 7.4 and washed by centrifugation at 105,000 g for 60 min. The washed pellet was suspended in 0.1 M Tris-HCl pH 8.0 at a concentration of ˜13 mg protein/ml and frozen at −80° C. For assay, the pellets were thawed and diluted with the same buffer. The incubation mixture consisted of the microsomal enzyme preparation, 0.28 mg protein/ml, E2-16α-alkyl esters, 50 μM, added in 10 μL of ethanol, all in a final volume of 1 mL of Tris buffer pH 8.0. Since the rates of reaction are widely different for the various esters, the incubation times were varied accordingly to obtain linear kinetics. At several appropriate time points, 100 μL aliquots were withdrawn and the reaction was quenched with 33 μL CH3CN, followed by a 33 μL of a solution of THF containing 1 […] of the internal standard, 6-ketoestradiol. The quenched aliquot was centrifuged for several minutes on bench-top centrifuge and 80 μl of the supernatant was analyzed for the esterase-hydrolysis product (the corresponding E2-16α-carboxylic acid: E16-1,0 8; E16-2,0 23; E16-3,0 35) by reversed phase HPLC with system H-10 for E2-16-1 and E2-16-2 esters, and with system H-15 for E2-16-3 esters. The E2-16α-carboxyl products, (Rt for E16-1,0 8=7 min and for E16-2,0 23=9 min, E16-3,0 35=6.5 min) and the internal standard, 6-ketoestradiol (Rt 7.5 min in system H-10, and 5 min in system H-15) were quantified at 280 nm on the HPLC UV detector. The UV absorbance was converted to moles of product by comparison to standard curves and corrected for recovery of the internal standard, 6-ketoestradiol. The velocity of the reaction for each ester, in nmol product/min/ml/ was then normalized to the ester, E16-1,2 10 and is shown in Table 1 as relative hydrolytic activity (RHA). The enzymatic velocity for the hydrolysis of E16-1,2 10 was 0.9±0.2 (S.D.) nmol product/min/ml over the various experiments. Since all of the esters could not be tested simultaneously, in each case we compared the rate of hydrolysis of the test compound to that of E16-1,2 10 run concurrently. All compounds were tested in triplicate in 3 separate experiments.
# [3] = test system: ovariectomized mouse vagina (vaginal reductase activity); experiment: In vivo local estrogenic assay (vaginal reductases); conditions: for dose producing a statistically significant (P<0.001) stimulation of vaginal reductase: intravaginal single dose in 25% propylene glycol in saline (FIG. 3a)
# Protocol: FIG. 3 depicts the results of in vivo local estrogenic assay (vaginal assay).
# Controls were injected with vehicle. The next morning, 2,3,5-triphenyltetrazolium chloride was instilled in the vagina and thirty minutes later the animals were killed and the vaginal reductase activity was determined spectrophotometrically Panel a: the steroids were dissolved in 10 μL of 25% propylene glycol in saline. Panel b: the steroids were dissolved in 10 μL of sesame oil. n=5. Error bars are±S.D. *P<0.001 compared to the control.
# In Vivo Estrogen Bioassays: Vaginal reductases. […] In some experiments as indicated, the method was modified by dissolving and injecting the estrogens in 10 μL of sesame oil. The next morning 0.5 mg of 2,3,5-triphenyltetrazolium chloride in 20 μL of saline was instilled in the vagina. Thirty minutes the animals were killed and the vaginas removed, washed thoroughly with saline and then blotted on filter paper. Each vagina was placed in a 12×75 mm test tube and extracted for 1 hour with ethanol/tetrachloroethylene (3:1). Afterwards, the solvent was removed and the formazan product in the organic extract was quantified at 500 nm. Each compound was assayed on at least 3 separate occasions with at least 5 replicates each time.
# [4] = test system: immature female rats (uterine weight); experiment: In vivo systemic estrogenic assay (uterotrophic assay, uterine weight); parameters: species or system rat
# Protocol: FIG. 2 depicts of the results of an in vivo systemic estrogenic assay (uterotrophic assay) as described in the experimental section. […] On the fourth day the animals were killed, the uteri removed and weighed. The total dose is shown. Controls were injected with sesame oil. Error bars are±S.D. n=5. *P<0.05, **P<0.001 when compared to the control.
# In Vivo Estrogen Bioassays: Uterine Weight. […] Control animals received sesame oil. On the fourth day, the animals were killed, the uteri were removed, dissected, blotted and weighed. Each compound was assayed in 3 separate experiments with n=5.
# human ERβ and ERα = experiment: Competitive binding to human ERβ and ERα expressed in Escherichia coli lysates (ratio of RBAs); conditions: RBAs (E2 = 100) in E. coli lysates expressing human ERβ and ERα separately
# [5] = test system: alkaline phosphatase (AlkP) induction in Ishikawa cells; experiment: Estrogenic potency in Ishikawa cells: induction of AlkP; assay type: cell-based, human; conditions: for RSA (estrogenic potency compared to E2): Ishikawa AlkP; for Ishikawa Cell AlkP RSA (relative stimulatory activity): induction of AlkP, E2 = 100, ± S.D.
# Protocol: Estrogenic Potency in Ishikawa Cells. The estrogenic potency of the E2-analogs was determined in a estrogen bioassay, the induction of AlkP in human endometrial adenocarcinoma cells (Ishikawa) grown in 96-well microtiter plates as we have previously described.^28 In short, the cells are grown in phenol red free medium with estrogen depleted (charcoal stripped) bovine serum in the presence or absence of varying amounts of the steroids. […] After 3 days, the cells are washed, frozen and thawed, and then incubated with 5 mM p-nitrophenyl phosphate, a chromogenic substrate for the AlkP enzyme, at pH 9.8. To ensure linear enzymatic analysis, the plates are monitored kinetically for the for the production of p-nitrophenol at 405 nm. The relative stimulatory activity is determined by analysis of the curve fitting program Prism. Each compound was analyzed in at least 3 separate experiments performed in duplicate.
# [6] = Stability on incubation with heat denatured enzyme under esterase assay conditions; assay type: in vitro ADME; conditions: heat denatured (1 h at 80° C.) enzyme, 37° C.
# Protocol: The various E2-16α-alkyl esters, including the reactive E16-1,2vin 15, were stable under the conditions used in the esterase assay. Each of the substrates was incubated with heat denatured (1 h at 80° C.) enzyme at 37° C. for periods that exceeded the incubation times of the enzyme assay. Only insignificant amounts of carboxyl products were formed from any of these esters during the incubations with denatured enzyme.
Structure (SMILES),ER RBA (relative binding affinity) [1],RBA [1] [%],"Esterase RHA (relative hydrolytic activity) ([2]; rat hepatic microsomes, ± S.D.)",vaginal estrogenic effect ([3]; 50 ng in sesame oil (FIG. 3b)),dose producing a statistically significant (P<0.001) stimulation of vaginal reductase [3] [ng],uterotrophic effect ([4]; 10 μg total dose per animal),uterotrophic effect expressed as equivalent amount of E2 ([4]; 100 μg total dose),ERα/ERβ (ratio of the RBAs) (human ERβ and ERα),RSA (estrogenic potency compared to E2) [5] [%],Ishikawa Cell AlkP RSA (relative stimulatory activity) [5],also measured
"COC(=O)[C@@H]1C[C@H]2[C@@H]3CCc4cc(O)ccc4[C@H]3CC[C@]2(C)[C@H]1O [E16-1,1, Methyl (3,17β-dihydroxyestra-1,3,5(10)-trien-16α-yl) formate]",35 ± 4,35,45 ± 10,still not stimulatory,250,small stimulatory action (P<0.05),about 4 μg,750,10,10 ±3,"uterotrophic stimulation expressed as equivalent amount of E2 ([4]; 30 μg total dose): ~3 ng; dose producing a reproducible and statistically significant stimulation (P<0.01) ([4]; immature rat, s.c. in sesame oil, 3 days, total dose): 30 to 50 µg"
"CCOC(=O)[C@@H]1C[C@H]2[C@@H]3CCc4cc(O)ccc4[C@H]3CC[C@]2(C)[C@H]1O [E16-1,2, Ethyl (3,17β-dihydroxyestra-1,3,5(10)-trien-16α-yl) formate]",40 ± 10,40,100,still not stimulatory,250,no measurable stimulation,about 4 μg,"1,300",11,11 ± 5,"enzymatic velocity for the hydrolysis ([2]; rat hepatic microsomes 0.28 mg protein/ml, ester 50 μM, pH 8.0, ± S.D.): 0.9±0.2 nmol product/min/ml; uterotrophic effect ([4]; 30 μg total dose): small increase in uterine weight"
"C[C@]12CC[C@@H]3c4ccc(O)cc4CC[C@H]3[C@@H]1C[C@@H](C(=O)OCCF)[C@@H]2O [E16-1,2F1, 2′-Fluoroethyl (3,17β-dihydroxyestra-1,3,5(10)-trien-16α-yl) formate]",35 ± 3,35,420 ± 40,produced a significant estrogenic effect,100,–,–,"2,000",13,13 ± 5,"rate of cleavage relative to the non-fluorinated ester E16-1,2 ([2]; esterase, rat hepatic microsomes): about 4 times; vaginal estrogenic effect ([3]; 10 ng in sesame oil): consistent stimulation at 10 ng of E16-1,2F1, however, it was not statistically significant; vaginal estrogenic effect expressed as equivalent dose of E2 ([3]; 50 ng in sesame oil (FIG. 3b)): ~20 pg; uterotrophic effect ([4]; 100 μg total dose): did not produce a uterotrophic stimulation; uterotrophic effect expressed as equivalent amount of E2 ([4]; 300 μg total dose): less than 5 ng; uterotrophic effect ([4]; 300 μg total dose, other experiments (not shown)): small uterotrophic effect"
"C=COC(=O)[C@@H]1C[C@H]2[C@@H]3CCc4cc(O)ccc4[C@H]3CC[C@]2(C)[C@H]1O [E16-1,2vin, Vinyl (3,17β-dihydroxyestran-1,3,5(10)-trien-16α-yl) formates]",6 ± 2,6,"20,300 ± 5,500",–,–,–,–,–,–,0.4 ± 0.3,stability under the conditions used in the esterase assay [6]: stable
